Laboratory results from patent US7378081B2, “Composition and method for direct visualization of the human appendix” (Vincon Research Enterprises, LLC, priority 2003, dated 2008).

Tested on: human appendix
Assay: Clinical data on delivery and concentration of diatrizoate iodine in the appendix
Type: in vivo
Details: following oral administration
Method: The bioavailability and release profile of diatrizoate appear dependent on both concentration and pH, which explains why
Critical to efficacy of the composition are ‘gasless’ enteric conditions and neutralization of the harsh acidity of gastric secretions that appear to inhibit the transit of intact diatrizoate to the appendix. Clinical trials show optimal appendiceal visualization at a critical concentration of 2.8 mg % iodine; however 5 mg % is considered optimal for ideal image contrast.

## CC(=O)Nc1c(I)c(NC(C)=O)c(I)c(C(=O)O)c1I [diatrizoate, 1-deoxy-1-(methylamino)-D-glucitol-3,5-diacetamido-2,4,6-triiodobenzoate]
  time until organically bound iodine is delivered and concentrated in the human appendix: approximately 50 minutes
